We go through 24 compounds from patent US10669289B2, “Boronic acid derivatives” (MERCK PATENT GMBH, priority 2014, dated 2020).

In test [1] the target is human immuno proteasome (LMP7) (Homo sapiens (Human), UniProt P28062). Briefly: Determination of LMP7 activity (fluorescence intensity assay, Suc-LLVY-AMC). Format: biochemical. A digest of the protocol:
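Fluorogenic Suc-LLVY-AMC cleavage (40 μM substrate, 60 min, 37° C., ex 350/em 450 nm) measured after 0.25 nM human immunoproteasome was exposed to compound at 30 μM–15 pM. Preincubation was 20 min by default or 120 min (long) at 25° C., in Tris pH 7.4 with 0.03% SDS, 1 mM EDTA and 1% DMSO.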

Test [2] addresses human constitutive proteasome (Beta5) (Homo sapiens (Human), UniProt P28074). Put plainly: Determination of Beta5 activity (fluorescence intensity assay, Suc-LLVY-AMC). In kind it is biochemical. A digest of the protocol: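 Purified human constitutive proteasome (1.25 nM) preincubated with compounds (30 μM–15 pM) for 20 min (default) or 120 min at 25 °C in 50 mM Tris pH 7.4, 0.03% SDS, 1 mM EDTA, 1% DMSO. Suc-LLVY-AMC substrate at 40 μM, 60 min at 37 °C. Fluorescence read at ex 350/em 450 nm.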

[3] abbreviates: LMP7 versus Beta5, long incubation (120 min).
Setting [4] is: LMP7 versus Beta5, incubation for 20 minutes.

pIC50: −log10 of the molar value.

In the case of `C=CC(=O)N(CC)CC(=O)N[C@@H](Cc1ccc(C)c(C)c1C)B(O)O` [Compound No. 72, [(1R)-1-[[2-[ethyl(prop-2-enoyl)amino]acetyl]amino]-2-(2,3,4-trimethylphenyl)ethyl]boronic Acid], the “Selectivity LMP7 vs Beta5” value in test [1] (setting [3]) is given as “+++++ (Selectivity ≥ 150)”. Moreover, the pIC50 in test [1] (long incubation (120 min)) was 6.30 to 7.30; in test [2] (long incubation (120 min)) it was < 5.30.
As for `C/C=C(/C)C(=O)N(CC)CC(=O)N[C@@H](Cc1ccc(C)cc1C)B(O)O` [Compound No. 21, [(1R)-2-(2,4-dimethylphenyl)-1-[[2-[ethyl-[(Z)-2-methylbut-2-enoyl]amino]acetyl]amino]ethyl]boronic Acid], the “Selectivity LMP7 vs Beta5” value in test [1] (setting [4]) is given as “++ (50 ≤ Selectivity < 70)”. In addition, the values for the negative logarithm of the IC50 (pIC50) in test [1] (incubation for 20 minutes) and in test [2] (incubation for 20 minutes) were 6.30 to 7.30 and < 5.30, respectively.
The like results for `C=CC(=O)N(CC)CC(=O)N[C@@H](Cc1ccc(Cl)cc1)B(O)O` [Compound No. 25, [(1R)-2-(4-chlorophenyl)-1-[[2-[ethyl(prop-2-enoyl)amino]acetyl]-amino]ethyl]boronic Acid] were, in that order, “+ (Selectivity < 50)”, 6.30 to 7.30 and 5.30 to 6.30.
`CCN(CC(=O)N[C@@H](Cc1ccc(C)cc1C)B(O)O)C(=O)/C=C/C(=O)N(C)C` [Compound No. 62, [(1R)-1-[[2-[[(E)-4-(dimethylamino)-4-oxo-but-2-enoyl]-ethyl-amino]acetyl]amino]-2-(2,4-dimethylphenyl)ethyl]boronic Acid]: the “Selectivity LMP7 vs Beta5” value in test [1] (setting [3]) is given as “+++++ (Selectivity ≥ 150)”. Also, the pIC50 is 6.30 to 7.30 in test [1] (long incubation (120 min)) and < 5.30 in test [2] (long incubation (120 min)).
Regarding `C=CC(=O)N(CC(=O)N[C@@H](Cc1ccc(Cl)cc1Cl)B(O)O)CC(F)(F)F` [Compound No. 60, [(1R)-2-(2,4-dichlorophenyl)-1-[[2-[prop-2-enoyl(2,2,2-trifluoroethyl)amino]acetyl]amino]ethyl]boronic Acid], the “Selectivity LMP7 vs Beta5” value in test [1] (setting [3]) was “+++++ (Selectivity ≥ 150)”. For the same compound, the pIC50 in test [1] (long incubation (120 min)) is > 7.30; in test [2] (long incubation (120 min)), < 5.30.
With `CC#CC(=O)N(C)CC(=O)N[C@@H](Cc1ccc(C)cc1C)B(O)O` [Compound No. 20, [(1R)-1-[[2-[but-2-ynoyl(methyl)amino]acetyl]amino]-2-(2,4-dimethylphenyl)ethyl]boronic Acid], the “Selectivity LMP7 vs Beta5” value in test [1] (setting [4]) is reported as “+ (Selectivity < 50)”. For the same compound, the pIC50 in test [1] (incubation for 20 minutes) is > 7.30; in test [2] (incubation for 20 minutes), 5.30 to 6.30.
For `C=CS(=O)(=O)N(C)CC(=O)N[C@@H](Cc1ccc(C)cc1C)B(O)O` [Compound No. 15, [(1R)-2-(2,4-dimethylphenyl)-1-[[2-[methyl(vinylsulfonyl)amino]-acetyl]amino]ethyl]boronic Acid], the “Selectivity LMP7 vs Beta5” value in test [1] (setting [4]) was “+++ (70 ≤ 100)”. The pIC50 in test [1] (incubation for 20 minutes) is > 7.30; in test [2] (incubation for 20 minutes), 5.30 to 6.30.
As to `C=CC(=O)N(CC)CC(=O)N[C@@H](Cc1ccc(C)cc1C)B(O)O` [Compound No. 34, [(1R)-2-(2,4-dimethylphenyl)-1-[[2-[ethyl(prop-2-enoyl)amino]acetyl]-amino]ethyl]boronic Acid], in test [1] (setting [4]), the “Selectivity LMP7 vs Beta5” value is “++++ (100 ≤ Selectivity < 150)”. Moreover, the pIC50 is 6.30 to 7.30 in test [1] (incubation for 20 minutes) and < 5.30 in test [2] (incubation for 20 minutes).
As for `C=CC(=O)N(CC(=O)N[C@@H](Cc1ccc(Cl)cc1)B(O)O)c1ccccc1F` [Compound No. 55, [(1R)-2-(4-chlorophenyl)-1-[[2-(2-fluoro-N-prop-2-enoyl-anilino)acetyl]amino]ethyl]boronic Acid], the “Selectivity LMP7 vs Beta5” value in test [1] (setting [3]) is on record as “+++++ (Selectivity ≥ 150)”. The pIC50 in test [1] (long incubation (120 min)) is > 7.30; in test [2] (long incubation (120 min)), 5.30 to 6.30.
Take `C=CC(=O)N(CC(=O)N[C@@H](Cc1ccc(C)cc1C)B(O)O)c1ccc(OC(F)(F)F)cc1` [Compound No. 9, [(1R)-2-(2,4-dimethylphenyl)-1-[[2-[N-prop-2-enoyl-4-(trifluoromethoxy)anilino]acetyl]amino]ethyl]boronic Acid]: in test [1] (setting [4]), the “Selectivity LMP7 vs Beta5” value is “+++ (70 ≤ 100)”. The pIC50 in test [1] (incubation for 20 minutes) was > 7.30; in test [2] (incubation for 20 minutes) it was 5.30 to 6.30.
For the compound `CCN(CC(=O)N[C@@H](Cc1ccc(C)cc1C)B(O)O)C(=O)C=C(C)C` [Compound No. 24, [(1R)-2-(2,4-dimethylphenyl)-1-[[2-[ethyl(3-methylbut-2-enoyl)amino]-acetyl]amino]ethyl]boronic Acid], the “Selectivity LMP7 vs Beta5” value in test [1] (setting [4]) is reported as “++ (50 ≤ Selectivity < 70)”. Besides, the pIC50 in test [1] (incubation for 20 minutes) was 6.30 to 7.30; in test [2] (incubation for 20 minutes) it was 5.30 to 6.30.
On to `C=CC(=O)N(CC#N)CC(=O)N[C@@H](Cc1ccc(C)c(C)c1)B(O)O` [Compound No. 63, [(1R)-1-[[2-[cyanomethyl(prop-2-enoyl)amino]acetyl]amino]-2-(3,4-dimethylphenyl)ethyl]boronic Acid], for which the “Selectivity LMP7 vs Beta5” value in test [1] (setting [3]) is recorded as “+++++ (Selectivity ≥ 150)”. Moreover, the pIC50 in test [1] (long incubation (120 min)) was > 7.30; in test [2] (long incubation (120 min)), < 5.30.
On to `C=CC(=O)N(CC(=O)N[C@@H](Cc1ccc(C)cc1C)B(O)O)c1ccccc1F` [Compound No. 1, [(1R)-2-(2,4-dimethylphenyl)-1-[[2-(2-fluoro-N-prop-2-enoyl-anilino)acetyl]amino]ethyl]boronic Acid], for which the “Selectivity LMP7 vs Beta5” value in test [1] (setting [4]) was “+++++ (Selectivity ≥ 150)”. The negative logarithm of the IC50 (pIC50) in test [1] (incubation for 20 minutes) was > 7.30; in test [2] (incubation for 20 minutes), < 5.30.
The like results for `C=CC(=O)N(c1ccccc1)[C@@H](C)C(=O)N[C@@H](Cc1ccc(C)cc1C)B(O)O` [Compound No. 46, [(1R)-2-(2,4-dimethylphenyl)-1-[[(2S)-2-(N-prop-2-enoylanilino)propanoyl]amino]ethyl]boronic Acid] were, in that order, “++ (50 ≤ Selectivity < 70)”, 5.30 to 6.30 and < 5.30.
For the compound `C=CC(=O)N(CC(=O)N[C@@H](Cc1ccc(C)cc1C)B(O)O)c1cccc(F)c1F` [Compound No. 41, [(1R)-1-[[2-(2,3-difluoro-N-prop-2-enoyl-anilino)acetyl]amino]-2-(2,4-dimethylphenyl)ethyl]boronic Acid], the “Selectivity LMP7 vs Beta5” value in test [1] (setting [3]) is on record as “+++++ (Selectivity ≥ 150)”. Further, the negative logarithm of the IC50 (pIC50) was > 7.30 in test [1] (long incubation (120 min)) and < 5.30 in test [2] (long incubation (120 min)).
`C=CC(=O)N(CC(=O)N[C@@H](Cc1ccc(C)cc1C)B(O)O)c1ccccc1Cl` [Compound No. 87, [(1R)-1-[[2-(2-chloro-N-prop-2-enoyl-anilino)acetyl]amino]-2-(2,4-dimethylphenyl)ethyl]boronic Acid]: the “Selectivity LMP7 vs Beta5” value in test [1] (setting [4]) is “+++++ (Selectivity ≥ 150)”. Also, the pIC50 is > 7.30 in test [1] (incubation for 20 minutes) and < 5.30 in test [2] (incubation for 20 minutes).
Regarding `C=CC(=O)N(C)CC(=O)N[C@@H](Cc1ccc(C(F)(F)F)cc1C)B(O)O` [Compound No. 67, [(1R)-1-[[2-[methyl(prop-2-enoyl)amino]acetyl]amino]-2-[2-methyl-4-(trifluoromethyl)phenyl]ethyl]boronic Acid], the “Selectivity LMP7 vs Beta5” value in test [1] (setting [3]) was “+++++ (Selectivity ≥ 150)”. Besides, the pIC50 was > 7.30 in test [1] (long incubation (120 min)) and < 5.30 in test [2] (long incubation (120 min)).
The like results for `C=CC(=O)N(C)CC(=O)N[C@@H](Cc1ccc(Cl)cc1Cl)B(O)O` [Compound No. 85, [(1R)-2-(2,4-dichlorophenyl)-1-[[2-[methyl(prop-2-enoyl)amino]acetyl]amino]ethyl]boronic Acid] were, in that order, “+++++ (Selectivity ≥ 150)”, > 7.30 and < 5.30.
The like results for `C=CC(=O)N(CC(=O)N[C@@H](Cc1ccc(C)cc1C)B(O)O)c1c(F)cccc1F` [Compound No. 43, [(1R)-1-[[2-(2,6-difluoro-N-prop-2-enoyl-anilino)acetyl]amino]-2-(2,4-dimethylphenyl)ethyl]boronic Acid] were, in that order, “+++++ (Selectivity ≥ 150)”, > 7.30 and < 5.30.
The like results for `C=CC(=O)N1CCCC[C@@H]1C(=O)N[C@@H](Cc1ccc(Cl)cc1Cl)B(O)O` [Compound No. 51, [(1R)-2-(2,4-dichlorophenyl)-1-[[(2R)-1-prop-2-enoylpiperidine-2-carbonyl]amino]ethyl]boronic Acid] were, in that order, “++++ (100 ≤ Selectivity < 150)”, 6.30 to 7.30 and < 5.30.
Consider `C=CC(=O)N1CCC[C@@H]1C(=O)N[C@@H](Cc1ccc(C)cc1C)B(O)O` [Compound No. 53, [(1R)-2-(2,4-dimethylphenyl)-1-[[(2R)-1-prop-2-enoylpyrrolidine-2-carbonyl]amino]ethyl]boronic Acid], for which the “Selectivity LMP7 vs Beta5” value in test [1] (setting [3]) is on record as “++ (50 ≤ Selectivity < 70)”. The pIC50 in test [1] (long incubation (120 min)) is 5.30 to 6.30; in test [2] (long incubation (120 min)), < 5.30.
In the case of “[(1R)-1-[[2-[but-2-ynoyl(propyl)amino]acetyl]amino]-2-(2,4-dimethylphenyl)ethyl]boronic Acid [Compound No. 3]”, in test [1] (setting [4]), the “Selectivity LMP7 vs Beta5” value is reported as “+++ (70 ≤ 100)”. Besides, the pIC50 in test [1] (incubation for 20 minutes) is 6.30 to 7.30; in test [2] (incubation for 20 minutes), < 5.30.
For `C=CC(=O)N(CC(=O)N[C@@H](Cc1ccsc1)B(O)O)c1ccc(OC)c(OC)c1` [Compound No. 99, [(1R)-1-[[2-(3,4-dimethoxy-N-prop-2-enoyl-anilino)acetyl]-amino]-2-(3-thienyl)ethyl]boronic Acid], in test [1] (setting [3]), the “Selectivity LMP7 vs Beta5” value is reported as “+++++ (Selectivity ≥ 150)”. The pIC50 in test [1] (long incubation (120 min)) is > 7.30; in test [2] (long incubation (120 min)), < 5.30.
For the compound `Cc1ccc(C[C@H](NC(=O)CN(C)C(=O)/C=C/Cl)B(O)O)c(C)c1` [Compound No. 13, [(1R)-1-[[2-[[(E)-3-chloroprop-2-enoyl]-methyl-amino]acetyl]amino]-2-(2,4-dimethylphenyl)ethyl]boronic Acid], in test [1] (setting [4]), the “Selectivity LMP7 vs Beta5” value was “+++++ (Selectivity ≥ 150)”. The negative-log IC50 (pIC50) in test [1] (incubation for 20 minutes) was > 7.30; in test [2] (incubation for 20 minutes), 5.30 to 6.30.
